In patent EP3959200B1, “NEW TRIAZOLE AND TRIAZOLOTHIADIAZINE DERIVATIVES EXERTING CYTOTOXIC AND APOPTOTIC EFFECTS ON A549 CELLS THROUGH AKT INHIBITION” (Anadolu Universitesi, priority 2020, dated 2022):
Values after ≈ are worked out from the molar mass of the structure shown.

Key:
[1] = test system: A549 human lung adenocarcinoma cells; assay: MTT cytotoxicity assay; type: cell-based; settings: for IC50: Homo sapiens, A549, MTT, 24 hours, read-out: IC50 values A549 cell line; for SI values: SI= IC50 for NIH/3T3 cell line / IC50 for A549 cell line; for cytotoxic effects on A549 cell line: in the tested concentration range (0.12-500 µg/mL), result in words
Method: (§1) In order to be used from this stock, the concentrations ranging from 0.12 to 500 µg/mL (with the highest DMSO ratio of 0.1%) were prepared.
A549 human lung adenocarcinoma cells (ATCC® CCL-185™) were grown in RPMI 1640 medium supplemented with 10% fetal bovine serum, 1% penicillin/streptomycin, in an incubator with carbon dioxide, in a culture medium at 37°C at 95% relative humidity.
(§2) MTT protocol was applied to determine cell viability. […] At the end of the incubation period, 20 µL of MTT dye (5 mg/mL) was added into each well, and the cells were incubated for an additional 4 hours at 37°C. After this process, MTT dye was removed from the cells, 200 µL of DMSO was added to each well and left to incubate for 10 minutes. Color change was detected at 540 nm in the ELx808-IU Bio-Tek plate reader. Inhibition% values were determined for each concentration of compounds. Inhibitory concentration 50 (IC50) values of the compounds were calculated by drawing a dose-response curve with their concentrations against these values. All experiments were carried out in triplicate. The results were given as mean±standard deviation. Inhibition% = 100−[(ODtest compound−ODblank/ODsolvent control−ODblank)×100] [formula]
Selective index (SI) values were determined using the following formula. SI […] IC50 for NIH/3T3 cell line/IC50 for A549 cell line [formula]

[2] = test system: NIH/3T3 mouse embryonic fibroblast cells; assay: MTT cytotoxicity assay; type: cell-based; settings: for IC50: Mus musculus, NIH3T3, 24 hours, read-out: IC50 values NIH/3T3 cell line
Method: as §1
NIH/3T3 mouse embryonic fibroblast cells (ATCC® CRL-1658™) were grown in DMEM medium supplemented with 10% fetal bovine serum, 1% penicillin/streptomycin, in an incubator with carbon dioxide, in a culture medium at 37°C at 95% relative humidity.
as §2

A549 cells = assay: FITC Annexin V/PI apoptosis detection by flow cytometry; type: cell-based, human; settings: for apoptosis induction: flow cytometry, result in words
Method: The cells incubated with the compounds were centrifuged at 400 × g for 5 minutes in labeled tubes and washed twice with 1xPBS. Then, the cells were suspended in 1×Annexin-V binding solution at 1×10^6 cells/mL and 100 µL of this cell solution was taken and transferred to tubes. The cells were treated with 5 µL Annexin V FITC and 5 µL of propidium iodide (PI) dyes. Then, the cells were kept at room temperature in the dark for 15 minutes to allow the dye to bind. 400 µL of 1×Annexin-V binding cell solution was transferred to flow cytometry tubes and the amount of early and late apoptotic cells was determined relative to the positive control using the BD FACSAria flow cytometer FACSDiva version 6.1.1 software.

Akt = Akt activity assay (Akt colorimetric in cell ELISA); type: cell-based, human; settings: for Inhibition % / IC50 value (Akt inhibitory effects): 24 hours; for Akt inhibitory effects: result in words
Method: Briefly, the media was removed from the wells and 100 µL of 4% formaldehyde was added. The plate was incubated for 15 minutes in a fume hood. Formaldehyde was removed and the plate was washed twice with 1X […] solution (TBS) to 100 µL/well. 1X TBS was removed and 100 µL of 1X permeabilization buffer was added to each well and left at room temperature for 15 minutes. After removing the 1X permeabilization buffer, the wells were washed once with 100 µL of 1X TBS. 1X TBS was removed and 100 µL of the quenching solution was added to the wells and left at room temperature for 20 minutes. Then, this solution was removed. The plate was washed once with 1X TBS, 100 µL of blocking buffer was added to the wells and left at room temperature for 30 minutes. At the end of this period, the blocking buffer was removed and 50 µL of primary antibody was added to the wells. The plate was closed with a sealer and incubated overnight at 4°C. The primary antibody was removed and plate wells were washed three times with 100 µL of wash buffer. After removing the wash buffer, 100 µL of diluted horseradish peroxidase (HRP) conjugate was added to the wells. It was incubated for 30 minutes at room temperature. After removing this conjugate, 100 µL of 3,3',5,5'-tetramethylbenzidine (TMB) stop solution was added and absorbance was measured at 450 nm for 30 minutes. The experiment was carried out in triplicate. The values of the blank wells were subtracted from the values of the untreated control and treated cells. The Akt activity% was determined as the relative absorbance of treated versus untreated control cells.

Row | Structure (SMILES) | IC50 [1] [µg/mL] | SI values [1] | IC50 [2] [µg/mL] | Early apoptotic cells % (A549 cells; at IC50 concentrations) [%] | Late apoptotic cells % (A549 cells; at IC50 concentrations) [%] | Necrosis % (A549 cells; at IC50 concentrations) [%] | Viable cells% (A549 cells; at IC50 concentrations) [%] | further results
1 | c1ccc(C2=Nn3c(CCc4cccnc4)nnc3SC2)cc1 [Compound 2a, 6-Phenyl-3-(2-(pyridine-3-yl)ethyl)-7H-[1,2,4]triazolo[3,4-b][1,3,4]thiadiazine] | 7.23 ± 1.62 (≈ 22.5 µM) | >69.16 | > 500 | 1.7 | 2.7 | 0.7 | 95.0 | Inhibition % (Akt; 1.81 µg/mL): 8.75±2.77%; Inhibition % (Akt; 3.62 µg/mL): 7.69±2.91%; Inhibition % (Akt; 7.23 µg/mL): 35.45±5.82%; Akt inhibitory effects (Akt): did not show significant Akt inhibitory effects
2 | O=[N+]([O-])c1ccc(C2=Nn3c(CCc4cccnc4)nnc3SC2)cc1 [Compound 2b, G-(4-Nitrophenyl)-3-(2-(pyridine-3-yl)ethyl)-7H-[1,2,4]triazolo[3,4-b] [1,3,4]thiadiazine] | 8.13 ± 0.81 (≈ 22.2 µM) | >61.50 | > 500 | 2.4 | 2.4 | 2.5 | 94.6 | Inhibition % (Akt; 4.07 µg/mL): 34.75±2.25%; Inhibition % (Akt; 8.13 µg/mL): 33.16±14.16%; Akt inhibitory effects (Akt): did not show significant Akt inhibitory effects
3 | Fc1ccc(C2=Nn3c(CCc4cccnc4)nnc3SC2)cc1 [Compound 2c, 6-(4-fluorophenyl)-3-(2-(pyridine-3-yl)ethyl)-7H-[1,2,4]triazolo[3,4-b][1,3,4]thiadiazine] | 11.8 ± 2.25 (≈ 34.9 µM) | >42.27 | > 500 | 1.8 | 6.0 | 4.6 | 87.6 | apoptotic activity (A549 cells; at IC50 concentrations, early plus late apoptotic cells): 7.8%; apoptosis induction (A549 cells): induce apoptosis; Inhibition % (Akt; 2.95 µg/mL): 54.17±26.41%; Inhibition % (Akt; 5.92 µg/mL): 73.98±8.55%; Inhibition % (Akt; 11.83 µg/mL): 82.60±2.88%; IC50 value (Akt inhibitory effects) (Akt): 2.95 ± 0.05 µg/mL (≈ 8.69 µM)
4 | Clc1ccc(C2=Nn3c(CCc4cccnc4)nnc3SC2)cc1 [Compound 2d, 6-(4-chlorophenyl)-3-(2-(pyridine-3-yl)ethyl)-7H-[1,2,4]triazolo[3,4-b][1,3,4]thiadiazine] | 15.8 ± 0.35 (≈ 44.3 µM) | >31.75 | > 500 | 2.4 | 3.8 | 1.3 | 92.5 | apoptosis induction (A549 cells): induce apoptosis; Inhibition % (Akt; 3.94 µg/mL): 80.33±19.71%; Inhibition % (Akt; 7.88 µg/mL): 99.07±1.86%; Inhibition % (Akt; 15.75 µg/mL): 90.41±7.17%; IC50 value (Akt inhibitory effects) (Akt): 0.80 ± 0.10 µg/mL (≈ 2.25 µM)
5 | Brc1ccc(C2=Nn3c(CCc4cccnc4)nnc3SC2)cc1 [Compound 2e, G-(4-Bromophenyl)-3-(2-(pyridine-3-yl)ethyl)-7H-[1,2,4]triazolo[3,4-b][1,3,4]thiadiazine] | > 500 |  | > 500 |  |  |  |  | cytotoxic effects on A549 cell line [1]: did not show cytotoxic effects
6 | N#Cc1ccc(C2=Nn3c(CCc4cccnc4)nnc3SC2)cc1 [Compound 2f, G-(4-Cyanophenyl)-3-(2-(pyridine-3-yl)ethyl)-7H-[1,2,4]triazolo[3,4-b][1,3,4]thiadiazine] | > 500 |  | > 500 |  |  |  |  | cytotoxic effects on A549 cell line [1]: did not show cytotoxic effects
7 | FC(F)(F)c1ccc(C2=Nn3c(CCc4cccnc4)nnc3SC2)cc1 [Compound 2g, 3-(2-(Pyridine-3-yl)ethyl)-6-(4-(trifluoromethyl)phenyl)-7H-[1,2,4]triazolo[3,4-b][1,3,4]thiadiazine] | > 500 |  | > 500 |  |  |  |  | cytotoxic effects on A549 cell line [1]: did not show cytotoxic effects
8 | Cc1ccc(C2=Nn3c(CCc4cccnc4)nnc3SC2)cc1 [Compound 2h, 3-(2-(Pyridine-3-yl)ethyl)-6-(p-tolyl)-7H-[1,2,4]triazolo[3,4-b][1,3,4]thiadiazine] | 41.3 ± 0.58 (≈ 123 µM) | >12.10 | > 500 |  |  |  |  | 
9 | COc1ccc(C2=Nn3c(CCc4cccnc4)nnc3SC2)cc1 [Compound 2i, G-(4-Methoxyphenyl)-3-(2-(pyridine-3-yl)ethyl)-7H-[1,2,4]triazolo[3,4-b][1,3,4] thiadiazine] | 13.7 ± 2.52 (≈ 38.9 µM) |  | < 3.9 |  |  |  |  | IC50 values NIH/3T3 cell line ([2]; 24 hours): <3.90 µg/mL
10 | c1cncc(CCc2nnc3n2N=C(c2ccc4ccccc4c2)CS3)c1 [Compound 2j, 6-(Naphthalene-2-yl)-3-(2-(pyridine-3-yl)ethyl)-7H-[1,2,4]triazolo[3,4-b][1,3,4] thiadiazine] | 4 (≈ 10.8 µM) | 1.67 | 6.66 ± 1.04 (≈ 17.9 µM) | 1.0 | 3.6 | 5.0 | 90.3 | Inhibition % (Akt; 2.0 µg/mL): 17.80±2.08%; Inhibition % (Akt; 4.0 µg/mL): 48.23±7.29%; Akt inhibitory effects (Akt): did not show significant Akt inhibitory effects
11 | Nn1c(CCc2cccnc2)nnc1SCC(=O)Nc1nccs1 [Compound 3a, 2-((4-Amino-5-(2-(pyridine-3-yl)ethyl)-4H-1,2,4-triazole-3-yl)thio)-N-(thiazole-2-yl)acetamide] | 0.48 ± 0.04 (≈ 1.33 µM) | 430.54 | 207 ± 11.6 (≈ 572 µM) | 0.4 | 3.1 | 5.6 | 91.0 | Inhibition % (Akt; 0.48 µg/mL): 54.76±5.33%; Akt inhibitory effects (Akt): did not show significant Akt inhibitory effects
12 | Nn1c(CCc2cccnc2)nnc1SCC(=O)Nc1nc2ccccc2s1 [Compound 3b, 2-((4-Amino-5-(2-(pyridine-3-yl)ethyl)-4H-1,2,4-triazole-3-yl)thio)-N-(benzothiazole-2-yl)acetamide] | 0.68 ± 0.18 (≈ 1.65 µM) | 34.31 | 23.3 ± 6.11 (≈ 56.7 µM) | 0.7 | 3.0 | 3.2 | 93.1 | Inhibition % (Akt; 0.98 µg/mL): 14.58±4.29%; Inhibition % (Akt; 3.90 µg/mL): 72.89±5.45%; IC50 value (Akt inhibitory effects) (Akt): 2.23 ± 0.12 µg/mL (≈ 5.42 µM)
13 | Nn1c(CCc2cccnc2)nnc1SCC(=O)Nc1nc2ccc(Br)cc2s1 [Compound 3e, 2-((4-Amino-5-(2-(pyridine-3-yl)ethyl)-4H-1,2,4-triazole-3-yl)thio)-N-(6-bromobenzothiazole-2-yl)acetamide] | 362 ± 12.6 (≈ 737 µM) | >1.38 | > 500 |  |  |  |  | 
14 | CCn1c(-c2nonc2N)nc2c(C#CC(C)(C)O)ncc(OC[C@H]3CCCNC3)c21 [GSK690693, reference compound] | 6.15 ± 0.49 (≈ 14.5 µM) |  |  |  |  |  |  | Inhibition % (Akt; 1.50 µg/mL): 34.46±1.47%; Inhibition % (Akt; 3.075 µg/mL): 49.88±5.55%; Inhibition % (Akt; 6.15 µg/mL): 100%; IC50 value (Akt inhibitory effects) (Akt): 2.93 ± 0.23 µg/mL (≈ 6.89 µM)
